Experimental data as given in the supplement of paper PMC10307832.

Columns and labels:
Assay in all cases: relative viability (nuclei count vs DMSO), 5 days (fraction); higher = more cells survive
Veliparib + Crizotinib = compound: C[C@]1(c2nc3c(C(N)=O)cccc3[nH]2)CCCN1 [Veliparib] + C[C@@H](Oc1cc(-c2cnn(C3CCNCC3)c2)cnc1N)c1c(Cl)ccc(F)c1Cl [Crizotinib] (partner 1 µM)
Outline: (§1)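 One day after seeding in 1536-well plates, lung cancer cell lines were dosed by pin tool. Dosing was either single-drug or a fixed anchor-drug dose plus five library-drug doses (not always all listed) in √10 steps. After 5 days, nuclei were stained in one fix-and-stain step and counted on 4× images, and relative viability is the nuclei count of treated wells over that of vehicle wells, given as the median of duplicate plates.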

Veliparib + Olaparib = compound: C[C@]1(c2nc3c(C(N)=O)cccc3[nH]2)CCCN1 [Veliparib] + O=C(c1cc(Cc2n[nH]c(=O)c3ccccc23)ccc1F)N1CCN(C(=O)C2CC2)CC1 [Olaparib] (partner 8 µM)
Outline: as §1

Veliparib + Pemetrexed = compound: C[C@]1(c2nc3c(C(N)=O)cccc3[nH]2)CCCN1 [Veliparib] + Nc1nc2[nH]cc(CCc3ccc(C(=O)N[C@@H](CCC(=O)O)C(=O)O)cc3)c2c(=O)[nH]1 [Pemetrexed] (partner 0.2 µM)
Outline: as §1

[1] = compound: COC1=CC=C(C=C1)CN2C=CC3=C2C=C(C=C3)C(=O)NO + C[C@]1(O)C[C@@H](c2nc(-c3ccc4ccc(-c5ccccc5)nc4c3)c3c(N)nccn32)C1 [Linsitinib] (partner 1 µM)
Outline: as §1

Work on NCI-H661 yielded a relative viability (Veliparib + Crizotinib; first compound 0.02 µM) of 0.91, a relative viability (Veliparib + Crizotinib; first compound 0.06325 µM) of 0.884 and a relative viability (Veliparib + Crizotinib; first compound 0.2 µM) of 0.909. For the same cell line, the relative viability (Veliparib + Crizotinib; first compound 0.6325 µM) was 0.885, the relative viability (Veliparib + Crizotinib; first compound 2 µM) was 0.963 and the relative viability (Veliparib + Olaparib; first compound 0.02 µM) was 0.749. The relative viability (Veliparib + Olaparib; first compound 0.06325 µM) was 0.824, the relative viability (Veliparib + Olaparib; first compound 0.2 µM) was 0.712 and the relative viability (Veliparib + Olaparib; first compound 0.6325 µM) was 0.692. It also gave a relative viability (Veliparib + Olaparib; first compound 2 µM) of 0.741, a relative viability (Veliparib + Pemetrexed; first compound 0.02 µM) of 0.973 and a relative viability (Veliparib + Pemetrexed; first compound 0.06325 µM) of 0.897. For the same cell line, the relative viability (Veliparib + Pemetrexed; first compound 0.2 µM) was 0.918, the relative viability (Veliparib + Pemetrexed; first compound 0.6325 µM) was 0.865 and the relative viability (Veliparib + Pemetrexed; first compound 2 µM) was 0.901. For the same cell line, the relative viability ([1]; first compound 0.253 µM) was 0.525, the relative viability ([1]; first compound 0.8 µM) was 0.555 and the relative viability ([1]; first compound 2.53 µM) was 0.521. For the same cell line, the relative viability ([1]; first compound 8 µM) was 0.46.

For NCI-H1666, the relative viability (Veliparib + Crizotinib; first compound 0.02 µM) was 0.94, the relative viability (Veliparib + Crizotinib; first compound 0.06325 µM) was 0.826 and the relative viability (Veliparib + Crizotinib; first compound 0.2 µM) was 1.03. It also gave a relative viability (Veliparib + Crizotinib; first compound 0.6325 µM) of 0.995, a relative viability (Veliparib + Crizotinib; first compound 2 µM) of 1.07 and a relative viability (Veliparib + Olaparib; first compound 0.02 µM) of 0.777. The relative viability (Veliparib + Olaparib; first compound 0.06325 µM) was 0.711, the relative viability (Veliparib + Olaparib; first compound 0.2 µM) was 0.82 and the relative viability (Veliparib + Olaparib; first compound 0.6325 µM) was 0.771. The relative viability (Veliparib + Olaparib; first compound 2 µM) was 0.778, the relative viability (Veliparib + Pemetrexed; first compound 0.02 µM) was 0.866 and the relative viability (Veliparib + Pemetrexed; first compound 0.06325 µM) was 0.782. It also gave a relative viability (Veliparib + Pemetrexed; first compound 0.2 µM) of 0.879, a relative viability (Veliparib + Pemetrexed; first compound 0.6325 µM) of 0.866 and a relative viability (Veliparib + Pemetrexed; first compound 2 µM) of 0.898. It also gave a relative viability ([1]; first compound 0.08 µM) of 0.696, a relative viability ([1]; first compound 0.253 µM) of 0.892 and a relative viability ([1]; first compound 0.8 µM) of 0.757. It also gave a relative viability ([1]; first compound 2.53 µM) of 0.76 and a relative viability ([1]; first compound 8 µM) of 0.901.

NCI-H2347 gave a relative viability (Veliparib + Crizotinib; first compound 0.02 µM) of 0.798, a relative viability (Veliparib + Crizotinib; first compound 0.06325 µM) of 0.839 and a relative viability (Veliparib + Crizotinib; first compound 0.2 µM) of 0.678. It also gave a relative viability (Veliparib + Crizotinib; first compound 0.6325 µM) of 0.652, a relative viability (Veliparib + Crizotinib; first compound 2 µM) of 0.616 and a relative viability (Veliparib + Olaparib; first compound 0.02 µM) of 0.587. It also gave a relative viability (Veliparib + Olaparib; first compound 0.06325 µM) of 0.549, a relative viability (Veliparib + Olaparib; first compound 0.2 µM) of 0.597 and a relative viability (Veliparib + Olaparib; first compound 0.6325 µM) of 0.586. The relative viability (Veliparib + Olaparib; first compound 2 µM) was 0.576, the relative viability (Veliparib + Pemetrexed; first compound 0.02 µM) was 0.434 and the relative viability (Veliparib + Pemetrexed; first compound 0.06325 µM) was 0.456. For the same cell line, the relative viability (Veliparib + Pemetrexed; first compound 0.2 µM) was 0.425, the relative viability (Veliparib + Pemetrexed; first compound 0.6325 µM) was 0.471 and the relative viability (Veliparib + Pemetrexed; first compound 2 µM) was 0.445. The relative viability ([1]; first compound 0.08 µM) was 0.697, the relative viability ([1]; first compound 0.253 µM) was 0.918 and the relative viability ([1]; first compound 0.8 µM) was 1.03. It also gave a relative viability ([1]; first compound 2.53 µM) of 0.982 and a relative viability ([1]; first compound 8 µM) of 0.877.

In the case of HCC-366, the relative viability (Veliparib + Crizotinib; first compound 0.02 µM) is reported as 0.592, the relative viability (Veliparib + Crizotinib; first compound 0.06325 µM) is reported as 0.38 and the relative viability (Veliparib + Crizotinib; first compound 0.2 µM) is reported as 0.543. The relative viability (Veliparib + Crizotinib; first compound 0.6325 µM) was 0.401, the relative viability (Veliparib + Crizotinib; first compound 2 µM) was 0.419 and the relative viability (Veliparib + Olaparib; first compound 0.02 µM) was 0.431. The relative viability (Veliparib + Olaparib; first compound 0.06325 µM) was 0.374, the relative viability (Veliparib + Olaparib; first compound 0.2 µM) was 0.401 and the relative viability (Veliparib + Olaparib; first compound 0.6325 µM) was 0.303. For the same cell line, the relative viability (Veliparib + Olaparib; first compound 2 µM) was 0.353, the relative viability (Veliparib + Pemetrexed; first compound 0.02 µM) was 0.178 and the relative viability (Veliparib + Pemetrexed; first compound 0.06325 µM) was 0.204. For the same cell line, the relative viability (Veliparib + Pemetrexed; first compound 0.2 µM) was 0.227, the relative viability (Veliparib + Pemetrexed; first compound 0.6325 µM) was 0.185 and the relative viability (Veliparib + Pemetrexed; first compound 2 µM) was 0.207. The relative viability ([1]; first compound 0.253 µM) was 0.98, the relative viability ([1]; first compound 0.8 µM) was 0.636 and the relative viability ([1]; first compound 2.53 µM) was 0.673. It also gave a relative viability ([1]; first compound 8 µM) of 0.696.

NCI-H2009 gave a relative viability (Veliparib + Crizotinib; first compound 0.02 µM) of 1.1, a relative viability (Veliparib + Crizotinib; first compound 0.06325 µM) of 0.934 and a relative viability (Veliparib + Crizotinib; first compound 0.2 µM) of 1.05. The relative viability (Veliparib + Crizotinib; first compound 0.6325 µM) was 1.03, the relative viability (Veliparib + Crizotinib; first compound 2 µM) was 1.03 and the relative viability (Veliparib + Olaparib; first compound 0.02 µM) was 0.672. It also gave a relative viability (Veliparib + Olaparib; first compound 0.06325 µM) of 0.652, a relative viability (Veliparib + Olaparib; first compound 0.2 µM) of 0.682 and a relative viability (Veliparib + Olaparib; first compound 0.6325 µM) of 0.672. For the same cell line, the relative viability (Veliparib + Olaparib; first compound 2 µM) was 0.763, the relative viability (Veliparib + Pemetrexed; first compound 0.02 µM) was 1.09 and the relative viability (Veliparib + Pemetrexed; first compound 0.06325 µM) was 0.952. It also gave a relative viability (Veliparib + Pemetrexed; first compound 0.2 µM) of 0.957, a relative viability (Veliparib + Pemetrexed; first compound 0.6325 µM) of 0.978 and a relative viability (Veliparib + Pemetrexed; first compound 2 µM) of 1.07. For the same cell line, the relative viability ([1]; first compound 0.08 µM) was 1.21, the relative viability ([1]; first compound 0.253 µM) was 1.17 and the relative viability ([1]; first compound 0.8 µM) was 1.13. For the same cell line, the relative viability ([1]; first compound 2.53 µM) was 1.21 and the relative viability ([1]; first compound 8 µM) was 1.19.

In the case of NCI-H460, the relative viability (Veliparib + Crizotinib; first compound 0.06325 µM) is reported as 0.869, the relative viability (Veliparib + Crizotinib; first compound 0.2 µM) is reported as 0.934 and the relative viability (Veliparib + Crizotinib; first compound 0.6325 µM) is reported as 0.734. The relative viability (Veliparib + Crizotinib; first compound 2 µM) was 1.02, the relative viability (Veliparib + Olaparib; first compound 0.02 µM) was 0.427 and the relative viability (Veliparib + Olaparib; first compound 0.06325 µM) was 0.316. The relative viability (Veliparib + Olaparib; first compound 0.2 µM) was 0.489, the relative viability (Veliparib + Olaparib; first compound 0.6325 µM) was 0.434 and the relative viability (Veliparib + Olaparib; first compound 2 µM) was 0.425. It also gave a relative viability (Veliparib + Pemetrexed; first compound 0.02 µM) of 0.0617, a relative viability (Veliparib + Pemetrexed; first compound 0.06325 µM) of 0.0618 and a relative viability (Veliparib + Pemetrexed; first compound 0.2 µM) of 0.0599. It also gave a relative viability (Veliparib + Pemetrexed; first compound 0.6325 µM) of 0.0593, a relative viability (Veliparib + Pemetrexed; first compound 2 µM) of 0.0663 and a relative viability ([1]; first compound 0.08 µM) of 0.553. For the same cell line, the relative viability ([1]; first compound 0.253 µM) was 0.879, the relative viability ([1]; first compound 0.8 µM) was 0.714 and the relative viability ([1]; first compound 2.53 µM) was 0.705. It also gave a relative viability ([1]; first compound 8 µM) of 0.776.

For NCI-H2085, the relative viability (Veliparib + Crizotinib; first compound 0.02 µM) was 0.9, the relative viability (Veliparib + Crizotinib; first compound 0.06325 µM) was 0.805 and the relative viability (Veliparib + Crizotinib; first compound 0.2 µM) was 0.702. For the same cell line, the relative viability (Veliparib + Crizotinib; first compound 0.6325 µM) was 0.738, the relative viability (Veliparib + Crizotinib; first compound 2 µM) was 0.809 and the relative viability (Veliparib + Olaparib; first compound 0.02 µM) was 0.789. For the same cell line, the relative viability (Veliparib + Olaparib; first compound 0.06325 µM) was 0.776, the relative viability (Veliparib + Olaparib; first compound 0.2 µM) was 0.779 and the relative viability (Veliparib + Olaparib; first compound 0.6325 µM) was 0.708. The relative viability (Veliparib + Olaparib; first compound 2 µM) was 0.734, the relative viability (Veliparib + Pemetrexed; first compound 0.02 µM) was 0.58 and the relative viability (Veliparib + Pemetrexed; first compound 0.06325 µM) was 0.952. It also gave a relative viability (Veliparib + Pemetrexed; first compound 0.2 µM) of 0.911, a relative viability (Veliparib + Pemetrexed; first compound 0.6325 µM) of 0.875 and a relative viability (Veliparib + Pemetrexed; first compound 2 µM) of 0.802. It also gave a relative viability ([1]; first compound 0.08 µM) of 0.794, a relative viability ([1]; first compound 0.253 µM) of 0.921 and a relative viability ([1]; first compound 0.8 µM) of 0.931. It also gave a relative viability ([1]; first compound 2.53 µM) of 0.925 and a relative viability ([1]; first compound 8 µM) of 0.934.

NCI-H596 gave a relative viability (Veliparib + Crizotinib; first compound 0.02 µM) of 1.05, a relative viability (Veliparib + Crizotinib; first compound 0.06325 µM) of 0.912 and a relative viability (Veliparib + Crizotinib; first compound 0.2 µM) of 1.06. The relative viability (Veliparib + Crizotinib; first compound 0.6325 µM) was 0.862, the relative viability (Veliparib + Crizotinib; first compound 2 µM) was 0.957 and the relative viability (Veliparib + Olaparib; first compound 0.02 µM) was 0.832. It also gave a relative viability (Veliparib + Olaparib; first compound 0.06325 µM) of 0.587, a relative viability (Veliparib + Olaparib; first compound 0.2 µM) of 0.75 and a relative viability (Veliparib + Olaparib; first compound 0.6325 µM) of 0.7. It also gave a relative viability (Veliparib + Olaparib; first compound 2 µM) of 0.738, a relative viability (Veliparib + Pemetrexed; first compound 0.02 µM) of 0.475 and a relative viability (Veliparib + Pemetrexed; first compound 0.06325 µM) of 0.451. It also gave a relative viability (Veliparib + Pemetrexed; first compound 0.2 µM) of 0.463, a relative viability (Veliparib + Pemetrexed; first compound 0.6325 µM) of 0.509 and a relative viability (Veliparib + Pemetrexed; first compound 2 µM) of 0.474. The relative viability ([1]; first compound 0.08 µM) was 0.982, the relative viability ([1]; first compound 0.253 µM) was 1.08 and the relative viability ([1]; first compound 0.8 µM) was 1.01. The relative viability ([1]; first compound 2.53 µM) was 0.915 and the relative viability ([1]; first compound 8 µM) was 0.992.
